The subject of assay [1] is HDAC6 in AgRP neurons. Description: DIO mice with HDAC6 depleted in AgRP neurons (HDAC6^Agrp-Δ). Type of assay: in vivo. Here is the method:
Design, validation, and stereotaxic injection of AAV viral vector carrying the guide RNAs targeting the mouse HDAC6 genomic locus. Three designed sgRNAs were concatenated and constructed into an AAV vector carrying a cre-enabled mCherry fluorescent marker.
(§1) Following the bilateral injection of AAV-sgHDAC6 into the arcuate nucleus of Agrp-ires-cre::LSL-Cas9-GFP (Agrp-Cre^+/−::Cas9^+/−) or control LSL-Cas9-GFP (Cas9^+/−) mice, immunostaining to detect the expression of mCherry and GFP was performed. AAV-sg-HDAC6 injected Agrp-Cre^+/−::Cas9^+/− (HDAC6^Agrp-Δ) and Cas9^+/−(HDAC6^WT) DIO mice (n=7 for each group) were fasted for 24 hours, and injected with ACY775 (10 mg/kg. i.p). Hourly total dark cycle food intake (g) (n=7 for each group) of these mice after ACY775 injection was measured. Body weight of AAV-sg-HDAC6 injected HDAC6^Agrp-Δ (n=11) and HDAC6^WT (n=6) mice were measured during 3 weeks of ACY775 (10 mg/kg/day, i.p.) treatment. Daily average food intake of HDAC6^Agrp-Δ (n=11) and HDAC6^WT (n=6) mice was measured during 3 weeks of ACY775 (10 mg/kg/day, i.p.) treatment. 24-hour food intake average of HDAC6^Agrp-Δ and HDAC6^WT mice during the 3 weeks of ACY775 treatment was assessed. Serum leptin level (ng/ml) of HDAC6^Agrp-Δ and HDAC6^WT mice after 2 weeks of ACY775 treatment (n=13 for HDAC6^WT and n=18 for HDAC6^Agrp-Δ) was measured. Lean mass (g); fat mass; and fat percentage (%) of HDAC6^Agrp-Δ and HDAC6^WT DIO mice after 3 weeks of ACY775 treatment was measured by DEXA scan. The HDAC6 inhibitor responsive neurons in the dorsomedial hypothalamus (DMH) were assessed. Immunostaining and quantification of c-Fos expression was performed in the DMH of DIO mice following one-time ACY775 treatment (10 mg/kg, i.p.).

In assay [2] the test system is ACY775-responsive DMH neurons. Nature of the assay: Caspase3 ablation of ACY775-responsive DMH neurons in TRAP2 DIO mice. It is filed as in vivo. Here is the method:
Whether the activity of ACY775-responsive DMH neurons could be involved in the food intake and bodyweight reducing activity of HDAC6 inhibitors was investigated as a possible second order of neurons to AgRP^ARC neurons. These neurons were ablated to investigate the necessity of these neurons in mediating the ACY775's anti-obesity effects. AAV-flex-taCasp3-TEVp was injected into the DMH of TRAP2 DIO mice, and then the mice were injected with a single dose of ACY775 and 4-OHT to ablate these neurons through caspase3 protein activation. To make sure that this experimental system worked, the existence of ACY775-responsive DMH neurons was verified by c-fos staining after injection of a second dose of ACY775. This experimental method predicts that caspase 3, when activated by administration of the first dose of ACY775 in conjugation with 4-OHT injection, will lead to ablation of ACY775-responsive DMH neurons, and diminish the c-fos signals that would otherwise be created by the second dose of ACY775.

In assay [3] the test system is HDAC6 in ACY775-responsive DMH neurons. Description: TRAP2-HDAC6^DMH-Δ DIO mice. Particulars: TRAP2-HDAC6^DMH-Δ and TRAP2-HDAC6^WT DIO mice. Type of assay: in vivo. As to the method: Coordinates used for aav-sg-HDAC6 injection into the DMH of c-Fos-iCreER::LSL-Cas9-GFP (TRAP2-Cas9) mouse., mCherry immunostaining in the aav-sg-HDAC6 injected TRAP2-cas9 obese mice, which were treated three weeks earlier with one dose of ACY775 (10 mg/kg, i.p.) (TRAP2-HDAC6^DMH-Δ) or vehicle (TRAP2-HDAC6^WT), followed by 4-Hydroxytamoxifen (4-OHT) injection, were assessed. TRAP2-HDAC6^WT and TRAP2-HDAC6^DMH-Δ mice were fasted 24-h and treated with ACY775 (10 mg/kg, i.p.). Hourly and total dark cycle food intake (g) (n=4 for each group) was determined for these mice after ACY775 injection. Daily body weight of TRAP2-HDAC6^DMH-Δ(n=10) or TRAP2-HDAC6^WT(n=11) DIO mice was measured during 2 weeks of ACY775 (10 mg/kg/day, i.p) treatment. Daily average food intake of TRAP2-HDAC6^DMH-Δ(n=10) or TRAP2-HDAC6^WT(n=11) DIO mice was measured during 2 weeks of ACY775 treatment.
To investigate whether activity of other neuronal populations are altered after HDAC6 inhibitor treatment, c-fos staining was performed in the whole brain of DIO mice, which were acutely treated with ACY775. […] Some of the DMH neurons express high levels of LepRb and involved in regulation of appetite […]. Whether HDAC6 in these ACY775-responsive DMH neurons is required or involved in any way in mediating the appetite suppressing and body weight lowering effects of ACY775 was then tested. […]

For assay [4], the target named is HDAC6 (Mus musculus (Mouse), UniProt Q9Z2V5). Description: LepRb acetyl-lysine immunoblotting in transfected HEK293 cells. It is filed as cell-based. The conditions noted are these: 200 nM, 0.5-3 h. Here is the method: HEK293 cells were transfected with the plasmids and were treated with vehicle or ACY775. Subsequently Flag immunoprecipitation was used to pull down LepRb followed by Ac^Lys or Flag immunoblotting.
To test whether HDAC6 can deacetylate LepRb, HEK293 cells were transfected with plasmids (LepRb-Flag, HA-p300 and HDAC6-myc). LepRb was immunoprecipitated by Flag antibodies, which was followed by acetyl-lysine (Ac^Lys) or immunoblottings.
Next, cells were transfected with plasmids (LepRb-Flag, HA-p300 and HDAC6-myc) and subsequently treated with ACY775 ([…]) for 0.5, 1, 2 and 3 h. […] Next, to investigate whether HDAC6 has any effect on LepRb tyrosine phosphorylation, which is indicative of LepRb activation, HEK 293 cells were transfected with LepRb and HDAC6-Myc plasmids in the indicated order and the cells stimulated with leptin (200 ng/ml) for 10 and 60 minutes. The Flag immunoprecipitates were exposed to phospho-tyrosine (p^Tyr) immunoblotting.

Assay [5] concerns DMH neurons. Description: c-Fos immunostaining in DMH of DIO mice. It is filed as in vivo. Particulars: fasting, acute 10 mg/kg i.p. Here is the method: as §1, with “Immunostaining and quantification of c-Fos expression was performed in the DMH of DIO mice following one-time ACY775 treatment (10 mg/kg, i.p.).” left out

Consider one molecule from patent publication US20250213561A1, “SELECTIVE HYPOTHALAMUS PERMEABLE HDAC6 INHIBITORS FOR TREATMENT OF LEPTIN-RESISTANT OBESITY” (The Children’s Medical Center Corporation, priority 2022, published 2025).

Entries after “also recorded” stand apart in the source; their conditions may differ.

HDAC6, sequence (Q9Z2V5 whole entry): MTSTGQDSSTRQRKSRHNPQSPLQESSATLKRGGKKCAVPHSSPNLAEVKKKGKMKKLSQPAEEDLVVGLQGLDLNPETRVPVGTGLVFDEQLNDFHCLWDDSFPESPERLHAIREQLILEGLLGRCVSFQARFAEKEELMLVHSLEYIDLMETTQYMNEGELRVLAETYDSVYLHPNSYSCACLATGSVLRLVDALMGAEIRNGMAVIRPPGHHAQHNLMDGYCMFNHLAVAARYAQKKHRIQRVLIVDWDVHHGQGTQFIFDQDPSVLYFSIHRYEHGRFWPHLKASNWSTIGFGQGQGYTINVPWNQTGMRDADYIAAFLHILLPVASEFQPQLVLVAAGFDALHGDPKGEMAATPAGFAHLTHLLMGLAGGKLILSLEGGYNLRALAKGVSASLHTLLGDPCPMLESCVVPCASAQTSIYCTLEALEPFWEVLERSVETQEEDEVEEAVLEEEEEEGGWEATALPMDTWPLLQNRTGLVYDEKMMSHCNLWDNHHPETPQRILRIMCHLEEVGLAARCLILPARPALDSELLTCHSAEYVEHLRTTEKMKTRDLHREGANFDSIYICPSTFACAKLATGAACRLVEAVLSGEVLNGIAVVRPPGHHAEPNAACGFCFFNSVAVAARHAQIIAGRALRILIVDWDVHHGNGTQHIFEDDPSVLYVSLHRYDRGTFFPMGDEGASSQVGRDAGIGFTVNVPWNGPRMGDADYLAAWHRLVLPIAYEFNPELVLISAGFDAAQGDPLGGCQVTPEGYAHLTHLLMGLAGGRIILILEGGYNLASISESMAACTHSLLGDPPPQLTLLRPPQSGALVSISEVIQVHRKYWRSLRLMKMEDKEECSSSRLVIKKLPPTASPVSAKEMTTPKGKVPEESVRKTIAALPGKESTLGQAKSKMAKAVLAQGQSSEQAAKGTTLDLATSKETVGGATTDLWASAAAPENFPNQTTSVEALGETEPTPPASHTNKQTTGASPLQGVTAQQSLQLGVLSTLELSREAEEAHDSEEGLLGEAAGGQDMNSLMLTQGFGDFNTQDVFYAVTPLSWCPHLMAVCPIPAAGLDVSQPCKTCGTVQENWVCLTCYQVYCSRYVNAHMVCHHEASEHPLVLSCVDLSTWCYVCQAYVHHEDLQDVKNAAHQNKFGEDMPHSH

For the molecule `O=C(NO)c1cnc(NC2(c3cccc(F)c3)CCCCC2)nc1` [ACY775, 2-[[1-(3-fluorophenyl)cyclohexyl]amino]-N-hydroxy-5-pyrimidinecarboxamide], the “suppression of food intake after a single dose” value in assay [1] (HDAC6^Agrp-Δ DIO mice, 10 mg/kg i.p.) is reported as “almost complete resistance to ACY755-induced suppression of food intake”. Further, the “anti-obesity effects on chronic treatment” value in assay [1] (HDAC6^Agrp-Δ versus HDAC6^WT DIO mice) is listed as “Significantly attenuated effects”. In assay [2] (10 mg/kg/day i.p.), the “body weight and food consumption, chronic” value was “neither reduced the body weight nor the food consumption in caspase3^on-DMH mice; also recorded: did reduce the food intake and bodyweight in caspase3^off-DMH mice”. The blood glucose levels result in assay [2] (caspase3^on-DMH versus caspase3^off-DMH) is given as “significantly higher in caspase3^on-DMH mice”. For the same molecule, the “food intake in fasted mice” value in assay [2] (caspase3^on-DMH versus caspase3^off-DMH, 10 mg/kg i.p.) is “significantly higher than caspase3^off-DMH mice”. Moreover, in assay [3], the “body weight and food intake, two weeks” value is “lost weight and food intake was reduced equally in both groups”; the “food intake after a dose in 24 h fasted mice” value is on record as “consumed similar but small amount of food”. Also, in assay [4], the “deacetylation of LepRb” value is listed as “can completely block deactylation of LepRb”. Moreover, the “c-fos positive cell number in the DMH” value in assay [5] is on record as “major increase in c-fos positive cell number”.
